# Calls of active or inactive are those of the source. The calls are words filed in the database; no cut-off is given here.
# Key:
# Staphylococcus aureus [1] = experiment: Antibacterial activity against methicillin-resistant Staphylococcus aureus 2658 RCMB after 20 hrs by broth microdilution assay; format: functional
# Enterococcus faecium [2] = experiment: Antibacterial activity against vancomycin-resistant Enterococcus faecium ATCC 700221 after 20 hrs by broth microdilution assay; format: functional; conditions: ATCC 700221, 20 h
# Streptococcus pneumoniae [3] = experiment: Bactericidal activity against cephalosporin-resistant Streptococcus pneumoniae ATCC 51916 incubated for 20 hrs followed by re-plating on tryptic soy agar plates at 37 degC for 18 hrs by broth microdilution assay; format: functional
# Staphylococcus aureus [4] = experiment: Antibacterial activity against methicillin-resistant Staphylococcus aureus NRS386 after 20 hrs by broth microdilution assay; format: functional; conditions: NRS386, 20 h
# Enterococcus faecium [5] = experiment: Bactericidal activity against vancomycin-resistant Enterococcus faecium ATCC 700221 incubated for 20 hrs followed by re-plating on tryptic soy agar plates at 37 degC for 18 hrs by broth microdilution assay; format: functional
# Staphylococcus aureus [6] = experiment: Bactericidal activity against linezolid-resistant Staphylococcus aureus NRS119 incubated for 20 hrs followed by re-plating on tryptic soy agar plates at 37 degC for 18 hrs by broth microdilution assay; format: functional
# [7] = Selectivity index, ratio of compound effect for human Caco2 cells at maximum non-toxic concentration concentration to MIC for methicillin-resistant Streptococcus pneumoniae ATCC 700677; format: toxicity; conditions: Caco-2 cells, read-out: Selectivity Index
# [8] = Volume of distribution at steady state in Sprague-Dawley rat at 5 uM, iv administered as single bolus dose by LC-MS/MS analysis; format: ADME, organism-based; conditions: in vivo, read-out: Vdss
# Staphylococcus aureus [9] = experiment: Antibacterial activity against methicillin-resistant Staphylococcus aureus USA400 NRS123 after 14 passages over 2 weeks by broth microdilution method; format: functional, organism-based
# [10] = Terminal phase volume of distribution at […] in Sprague-Dawley rat at 5 uM, iv administered as single bolus dose by LC-MS/MS analysis; format: ADME, organism-based; conditions: in vivo, read-out: Vbeta
# Staphylococcus aureus [11] = experiment: Bactericidal activity against vancomycin-resistant Staphylococcus aureus VRSA12 incubated for 20 hrs followed by re-plating on tryptic soy agar plates at 37 degC for 18 hrs by broth microdilution assay; format: functional
# Staphylococcus aureus [12] = experiment: Antibacterial activity against methicillin-resistant Staphylococcus aureus after 20 hrs by broth microdilution assay; format: functional
# Staphylococcus aureus [13] = experiment: Bactericidal activity against methicillin-sensitive Staphylococcus aureus NRS107 incubated for 20 hrs followed by re-plating on tryptic soy agar plates at 37 degC for 18 hrs by broth microdilution assay; format: functional
# [14] = tested on: Staphylococcus epidermidis; experiment: Antibacterial activity against methicillin-resistant Staphylococcus epidermidis NRS101 after 20 hrs by broth microdilution assay; format: functional; conditions: NRS101, 20 h
# Staphylococcus aureus [15] = experiment: Bactericidal activity against methicillin-resistant Staphylococcus aureus NRS386 incubated for 20 hrs followed by re-plating on tryptic soy agar plates at 37 degC for 18 hrs by broth microdilution assay; format: functional
# Streptococcus pneumoniae [16] = experiment: Antibacterial activity against methicillin-resistant Streptococcus pneumoniae ATCC 700677 after 20 hrs by broth microdilution assay; format: functional; conditions: ATCC 700677, 20 h
# Staphylococcus aureus [17] = experiment: Antibacterial activity against vancomycin-resistant Staphylococcus aureus VRSA10 after 20 hrs by broth microdilution assay; format: functional; conditions: VRSA10, 20 h
# Staphylococcus aureus [18] = experiment: Bactericidal activity against Staphylococcus aureus USA400 assessed as reduction in colony forming unit at 3 to 6 times MIC treated for 2 hrs followed by re-plating on tryptic soy agar plates at 37 degC for 18 to 20 hrs by broth microdilution assay; format: functional; parameters: scale not given: the % may be the effect or the level left
# Enterococcus faecalis [19] = experiment: Antibacterial activity against vancomycin-resistant Enterococcus faecalis ATCC 51299 after 20 hrs by broth microdilution assay; format: functional; conditions: ATCC 51299, 20 h
# Streptococcus pneumoniae [20] = experiment: Ratio of MBC to MIC for methicillin-resistant Streptococcus pneumoniae ATCC 700677; format: functional
# Staphylococcus aureus [21] = experiment: Antibacterial activity against vancomycin-resistant Staphylococcus aureus VRSA12 after 20 hrs by broth microdilution assay; format: functional; conditions: VRSA12, 20 h
# [22] = Selectivity index, ratio of compound effect for human Caco2 cells at maximum non-toxic concentration concentration to MIC for vancomycin-resistant Enterococcus faecium ATCC 700221; format: toxicity; conditions: Caco-2 cells, read-out: Selectivity Index
# Staphylococcus aureus [23] = experiment: Antibacterial activity against methicillin-resistant Staphylococcus aureus NRS385 after 20 hrs by broth microdilution assay; format: functional; conditions: NRS385, 20 h
# Staphylococcus aureus [24] = experiment: Bactericidal activity against methicillin-resistant Staphylococcus aureus NRS385 incubated for 20 hrs followed by re-plating on tryptic soy agar plates at 37 degC for 18 hrs by broth microdilution assay; format: functional
# [25] = AUC in Sprague-Dawley rat at 5 uM, iv administered as single bolus dose by LC-MS/MS analysis; format: ADME, organism-based; conditions: in vivo
# Enterococcus faecalis [26] = experiment: Bactericidal activity against vancomycin-resistant Enterococcus faecalis ATCC 51299 incubated for 20 hrs followed by re-plating on tryptic soy agar plates at 37 degC for 18 hrs by broth microdilution assay; format: functional
# [27] = Selectivity index, ratio of compound effect for human Caco2 cells at maximum non-toxic concentration concentration to MIC for Listeria monocytogenes ATCC 19111; format: toxicity; conditions: Caco-2 cells, read-out: Selectivity Index
# Caco-2 = experiment: Cytotoxicity against human Caco2 cells assessed as effect on cell viability up to 64 ug/ml after 2 hrs by MTS assay; format: cell-based; conditions: caco-2, 2 h
# Staphylococcus aureus [28] = experiment: Bactericidal activity against vancomycin-resistant Staphylococcus aureus VRSA10 incubated for 20 hrs followed by re-plating on tryptic soy agar plates at 37 degC for 18 hrs by broth microdilution assay; format: functional
# Staphylococcus aureus [29] = experiment: Bactericidal activity against Staphylococcus aureus USA400 NRS123 incubated for 20 hrs followed by re-plating on tryptic soy agar plates at 37 degC for 18 hrs by broth microdilution assay; format: functional
# [30] = Clearance in Sprague-Dawley rat at 5 uM, iv administered as single bolus dose by LC-MS/MS analysis; format: ADME, organism-based; conditions: in vivo
# Listeria monocytogenes [31] = experiment: Antibacterial activity against Listeria monocytogenes ATCC 19111 after 20 hrs by broth microdilution assay; format: functional; conditions: ATCC 19111, 20 h
# Staphylococcus aureus [32] = experiment: Bactericidal activity against Staphylococcus aureus USA300 NRS384 incubated for 20 hrs followed by re-plating on tryptic soy agar plates at 37 degC for 18 hrs by broth microdilution assay; format: functional
# [33] = Half life in Sprague-Dawley rat at 5 uM, iv administered as single bolus dose by LC-MS/MS analysis; format: ADME, organism-based; conditions: in vivo
# Listeria monocytogenes [34] = experiment: Bactericidal activity against Listeria monocytogenes ATCC 19111 incubated for 20 hrs followed by re-plating on tryptic soy agar plates at 37 degC for 18 hrs by broth microdilution assay; format: functional
# Staphylococcus aureus [35] = experiment: Antibacterial activity against Staphylococcus aureus after 20 hrs by broth microdilution assay; format: functional
# [36] = Selectivity index, ratio of compound effect for human Caco2 cells at maximum non-toxic concentration concentration to MIC for methicillin-resistant Staphylococcus epidermidis NRS101; format: toxicity; conditions: Caco-2 cells, read-out: Selectivity Index
# Streptococcus pneumoniae [37] = experiment: Antibacterial activity against cephalosporin-resistant Streptococcus pneumoniae ATCC 51916 after 20 hrs by broth microdilution assay; format: functional; conditions: ATCC 51916, 20 h
# [38] = Selectivity index, ratio of compound effect for human Caco2 cells at maximum non-toxic concentration concentration to MIC for cephalosporin-resistant Streptococcus pneumoniae ATCC 51916; format: toxicity; conditions: Caco-2 cells, read-out: Selectivity Index
# [39] = Selectivity index, ratio of compound effect for human Caco2 cells at maximum non-toxic concentration concentration to MIC for vancomycin-resistant Enterococcus faecalis ATCC 51299; format: toxicity; conditions: Caco-2 cells, read-out: Selectivity Index
# [40] = tested on: Staphylococcus epidermidis; experiment: Bactericidal activity against methicillin-resistant Staphylococcus epidermidis NRS101 incubated for 20 hrs followed by re-plating on tryptic soy agar plates at 37 degC for 18 hrs by broth microdilution assay; format: functional
# Streptococcus pneumoniae [41] = experiment: Bactericidal activity against methicillin-resistant Streptococcus pneumoniae ATCC 700677 incubated for 20 hrs followed by re-plating on tryptic soy agar plates at 37 degC for 18 hrs by broth microdilution assay; format: functional
# Staphylococcus aureus [42] = experiment: Antibacterial activity against methicillin-resistant Staphylococcus aureus USA400 NRS123 after 1 passages over 2 weeks by broth microdilution method; format: functional, organism-based
structure (smiles),measurement,setting,value
CCCCCCCCOc1ccc(-c2nc(C)c(-c3ccnc(N)n3)s2)cc1,MIC,Staphylococcus aureus [1],> 50 µg/mL
CCCCCCCCOc1ccc(-c2nc(C)c(-c3ccnc(NC(=N)N4CCOCC4)n3)s2)cc1,MIC,Staphylococcus aureus [1],6.25 µg/mL
CCCCCCCCOc1ccc(-c2nc(C)c(-c3ccnc(NC(=N)NC)n3)s2)cc1,MIC,Staphylococcus aureus [1],> 50 µg/mL
CCCCCCCOc1ccc(-c2nc(C)c(-c3ccnc(NC(=N)N4CCOCC4)n3)s2)cc1,MIC,Staphylococcus aureus [1],6.25 µg/mL
CCCCCCCOc1ccc(-c2nc(C)c(-c3ccnc(NC(=N)N(C)C)n3)s2)cc1,MIC,Enterococcus faecium [2],8 µg/mL
same,MBC,Streptococcus pneumoniae [3],8 µg/mL
same,MIC,Staphylococcus aureus [4],4 µg/mL
same,MBC,Enterococcus faecium [5],8 µg/mL
same,MBC,Staphylococcus aureus [6],8 µg/mL
same,selectivity ratio,[7],7 to 82
same,Vd at 5 µM,[8],4.36 L
same,Activity,Staphylococcus aureus [9],Active
same,Vd at 5 µM,[10],10.4 L
same,MBC,Staphylococcus aureus [11],4 µg/mL
same,MIC,Staphylococcus aureus [12],4 to 8 µg/mL
same,MBC,Staphylococcus aureus [13],4 µg/mL
same,MIC,[14],4 µg/mL
same,MBC,Staphylococcus aureus [15],4 µg/mL
same,MIC,Streptococcus pneumoniae [16],4 µg/mL
same,MIC,Staphylococcus aureus [1],1.56 µg/mL
same,MIC,Staphylococcus aureus [17],4 µg/mL
same,Activity,Staphylococcus aureus [18],100%
same,MIC,Enterococcus faecalis [19],8 µg/mL
same,Ratio,Streptococcus pneumoniae [20],1
same,MIC,Staphylococcus aureus [21],4 µg/mL
same,selectivity ratio,[22],7 to 82
same,MIC,Staphylococcus aureus [23],8 µg/mL
same,MBC,Staphylococcus aureus [24],8 µg/mL
same,AUC at 5 µM,[25],1140 ng·h/mL
same,MBC,Enterococcus faecalis [26],8 µg/mL
same,selectivity ratio,[27],7 to 82
same,Activity,Caco-2,Non-Toxic
same,MBC,Staphylococcus aureus [28],4 µg/mL
same,MBC,Staphylococcus aureus [29],8 µg/mL
same,clearance at 5 µM,[30],29.2 mL/min
same,MIC,Listeria monocytogenes [31],4 µg/mL
same,MBC,Staphylococcus aureus [32],4 µg/mL
same,half-life at 5 µM,[33],4 h
same,MBC,Listeria monocytogenes [34],4 µg/mL
same,MIC,Staphylococcus aureus [35],4 µg/mL
same,selectivity ratio,[36],7 to 82
same,MIC,Streptococcus pneumoniae [37],8 µg/mL
same,selectivity ratio,[38],7 to 82
same,selectivity ratio,[39],7 to 82
same,MBC,[40],4 µg/mL
same,MBC,Streptococcus pneumoniae [41],8 µg/mL
CCCCCCCOc1ccc(-c2nc(C)c(-c3ccnc(NN)n3)s2)cc1,MIC,Enterococcus faecium [2],64 µg/mL
same,MBC,Streptococcus pneumoniae [3],> 64 µg/mL
same,MIC,Staphylococcus aureus [4],32 µg/mL
same,MBC,Enterococcus faecium [5],> 64 µg/mL
same,MBC,Staphylococcus aureus [6],64 µg/mL
same,MBC,Staphylococcus aureus [11],> 64 µg/mL
same,MIC,Staphylococcus aureus [12],32 µg/mL
same,MBC,Staphylococcus aureus [13],> 64 µg/mL
same,MIC,[14],64 µg/mL
same,MBC,Staphylococcus aureus [15],> 64 µg/mL
same,MIC,Streptococcus pneumoniae [16],> 64 µg/mL
same,MIC,Staphylococcus aureus [1],3.12 µg/mL
same,MIC,Staphylococcus aureus [17],64 µg/mL
same,MIC,Enterococcus faecalis [19],> 64 µg/mL
same,MIC,Staphylococcus aureus [21],64 µg/mL
same,MIC,Staphylococcus aureus [23],32 µg/mL
same,MBC,Staphylococcus aureus [24],64 µg/mL
same,MBC,Enterococcus faecalis [26],> 64 µg/mL
same,MBC,Staphylococcus aureus [28],> 64 µg/mL
same,MBC,Staphylococcus aureus [29],> 64 µg/mL
same,MIC,Listeria monocytogenes [31],16 µg/mL
same,MBC,Staphylococcus aureus [32],> 64 µg/mL
same,MBC,Listeria monocytogenes [34],> 64 µg/mL
same,MIC,Staphylococcus aureus [35],16 µg/mL
same,MIC,Streptococcus pneumoniae [37],> 64 µg/mL
same,MBC,[40],64 µg/mL
same,MBC,Streptococcus pneumoniae [41],> 64 µg/mL
CCCCCCCCOc1ccc(-c2nc(C)c(-c3ccnc(N4CC(O)C4)n3)s2)cc1,MIC,Staphylococcus aureus [1],6.25 µg/mL
CCCCCCCOc1ccc(-c2nc(C)c(-c3ccnc(N4CC(O)C4)n3)s2)cc1,MIC,Staphylococcus aureus [1],6.25 µg/mL
CCCCCCCCOc1ccc(-c2nc(C)c(-c3ccnc(NN)n3)s2)cc1,MIC,Staphylococcus aureus [1],3.12 µg/mL
CO[C@H]1/C=C/O[C@@]2(C)Oc3c(C)c(O)c4c(O)c(c(/C=N/N5CCN(C)CC5)c(O)c4c3C2=O)NC(=O)/C(C)=C\C=C\[C@H](C)[C@H](O)[C@@H](C)[C@@H](O)[C@@H](C)[C@H](OC(C)=O)[C@@H]1C,Activity,Staphylococcus aureus [42],inactive

# From ChEMBL document CHEMBL4152249, “Alkoxyphenylthiazoles with broad-spectrum activity against multidrug-resistant gram-positive bacterial pathogens” (Eur J Med Chem, 2018)
